Patent publication US20260306491A1, “EGFR INHIBITOR FOR TREATING CANCERS COMPRISING ATYPICAL EGFR MUTATIONS” (ORIC Pharmaceuticals, Inc., priority 2023, published 2026)

Key:
[1] = tested on: EGFR exon 20 mutated NSCLC with active CNS metastases; test: Clinical evaluation in one subject (Example 11); type: in vivo, human; details: hemifumarate, 75 mg QD
Protocol: A subject having EGFR exon 20 mutated non-small cell lung cancer was enrolled in a clinical study relating to Compound I. The cancer in the subject had been previously treated with chemotherapy (pemetrexed/cisplatin) and amivantamab. The subject presented with four active CNS non-target lesions that were previously untreated, and for which the subject had not undergone prior surgery or radiation treatment. The subject was enrolled in a dosing cohort that received 75 mg QD of Compound I in the form of a hemifumarate salt.

[2] = Clinical study in NSCLC subjects: treatment-related adverse events (Example 10); type: in vivo, human; details: oral hemifumarate
Protocol: A clinical study was conducted using Compound I in human subjects having non-small cell lung cancer (NSCLC) comprising EGFR exon 20 insertion mutations, HER2 exon 20 insertion mutations, or HER2 amplification or overexpression. A total of 50 human subjects having non-small cell lung cancer comprising one or more EGFR exon 20 insertion mutations, HER2 exon 20 insertion mutations, or HER2 amplification or overexpression were enrolled in the study as of Jul. 31, 2023 with data collected as of Sep. 26, 2023. The subjects were enrolled into one of ten dosing cohorts that were each orally administered Compound I in the form of a hemifumarate salt as shown in Table 13 (QD=once per day; BID=twice per day).
The TRAEs that occurred in equal to or greater than 10% of subjects in the study are set forth in Tables 15 to 18 (TDD=total daily dose; n=number; N/A=not applicable; the term rash includes the following terms: acne, dermatitis, dermatitis acneiform, eczema, hand dermatitis, and rash).

C=CC(=O)Nc1cc(Nc2cc(N3OCC[C@@H]3c3cc(F)cc(F)c3)ncn2)c(OC)cc1N1CCC(N2CCN(C3CC3)CC2)CC1 [Compound I, N-[2-[4-(4-cyclopropyl-1-piperazinyl)-1-piperidinyl]-5-[[6-[(3R)-3-(3,5-difluorophenyl)-2-isoxazolidinyl]-4-pyrimidinyl]amino]-4-methoxyphenyl]-2-propenamide]
Reduction of all target and non-target lesions ([1]; after cycle 1 (28 days)): 60%
Reduction of all 4 CNS lesions ([1]; after cycle 1, confirmed after cycle 2): 100%
Duration of dosing at data cutoff ([1]; continuing): on dosing cycle 9
EGFR-related adverse events ([1]; data cutoff Sep. 26, 2023): Grade 2 mucositis and Grade 2 paronychia
Reduction of all target and non-target lesions ([1]; end of cycle 2): 100%
Tumor response ([1]; end of cycle 2, confirmed): complete response
Dose reductions and discontinuations [2]: infrequent dose reductions and discontinuations
Decreased appetite, Grade 1 ([2]; 45 mg-60 mg TDD (n = 23)): (22) %
Decreased appetite, Grade 1, number of subjects ([2]; 45 mg-60 mg TDD (n = 23)): 5 n
Decreased appetite, Grade 2 ([2]; 45 mg-60 mg TDD (n = 23)): (4) %
Decreased appetite, Grade 2, number of subjects ([2]; 45 mg-60 mg TDD (n = 23)): 1 n
Diarrhea, Grade 1 ([2]; 45 mg-60 mg TDD (n = 23)): (30) %
Diarrhea, Grade 1, number of subjects ([2]; 45 mg-60 mg TDD (n = 23)): 7 n
Diarrhea, Grade 2 ([2]; 45 mg-60 mg TDD (n = 23)): (9) %
Diarrhea, Grade 2, number of subjects ([2]; 45 mg-60 mg TDD (n = 23)): 2 n
Diarrhea, Grade 3 ([2]; 45 mg-60 mg TDD (n = 23)): 9%
Diarrhea, Grade 3, number of subjects ([2]; 45 mg-60 mg TDD (n = 23)): 2 n
Dose discontinuations ([2]; 45 mg-60 mg TDD (n = 23)): 4%
Dose discontinuations, number ([2]; 45 mg-60 mg TDD (n = 23)): 1 n
Dose reductions ([2]; 45 mg-60 mg TDD (n = 23)): 13%
Dose reductions, number ([2]; 45 mg-60 mg TDD (n = 23)): 3 n
Nausea, Grade 1 ([2]; 45 mg-60 mg TDD (n = 23)): (9) %
Nausea, Grade 1, number of subjects ([2]; 45 mg-60 mg TDD (n = 23)): 2 n
Nausea, Grade 2 ([2]; 45 mg-60 mg TDD (n = 23)): (9) %
Nausea, Grade 2, number of subjects ([2]; 45 mg-60 mg TDD (n = 23)): 2 n
Paronychia, Grade 1 ([2]; 45 mg-60 mg TDD (n = 23)): (17) %
Paronychia, Grade 1, number of subjects ([2]; 45 mg-60 mg TDD (n = 23)): 4 n
Paronychia, Grade 2 ([2]; 45 mg-60 mg TDD (n = 23)): (17) %
Paronychia, Grade 2, number of subjects ([2]; 45 mg-60 mg TDD (n = 23)): 4 n
Pruritis, Grade 1 ([2]; 45 mg-60 mg TDD (n = 23)): (17) %
Pruritis, Grade 1, number of subjects ([2]; 45 mg-60 mg TDD (n = 23)): 4 n
Pruritis, Grade 2 ([2]; 45 mg-60 mg TDD (n = 23)): (9) %
Pruritis, Grade 2, number of subjects ([2]; 45 mg-60 mg TDD (n = 23)): 2 n
Pruritis, Grade 3 ([2]; 45 mg-60 mg TDD (n = 23)): 4%
Pruritis, Grade 3, number of subjects ([2]; 45 mg-60 mg TDD (n = 23)): 1 n
Rash, Grade 1 ([2]; 45 mg-60 mg TDD (n = 23)): (26) %
Rash, Grade 1, number of subjects ([2]; 45 mg-60 mg TDD (n = 23)): 6 n
Rash, Grade 2 ([2]; 45 mg-60 mg TDD (n = 23)): (26) %
Rash, Grade 2, number of subjects ([2]; 45 mg-60 mg TDD (n = 23)): 6 n
Stomatitis, Grade 1 ([2]; 45 mg-60 mg TDD (n = 23)): (9) %
Stomatitis, Grade 1, number of subjects ([2]; 45 mg-60 mg TDD (n = 23)): 2 n
Stomatitis, Grade 2 ([2]; 45 mg-60 mg TDD (n = 23)): (9) %
Stomatitis, Grade 2, number of subjects ([2]; 45 mg-60 mg TDD (n = 23)): 2 n
Stomatitis, Grade 3 ([2]; 45 mg-60 mg TDD (n = 23)): 4%
Stomatitis, Grade 3, number of subjects ([2]; 45 mg-60 mg TDD (n = 23)): 1 n
Vomiting, Grade 1 ([2]; 45 mg-60 mg TDD (n = 23)): (9) %
Vomiting, Grade 1, number of subjects ([2]; 45 mg-60 mg TDD (n = 23)): 2 n
Decreased appetite, Grade 2 ([2]; <45 mg TDD (n = 18)): (6) %
Decreased appetite, Grade 2, number of subjects ([2]; <45 mg TDD (n = 18)): 1 n
Diarrhea, Grade 1 ([2]; <45 mg TDD (n = 18)): (11) %
Diarrhea, Grade 1, number of subjects ([2]; <45 mg TDD (n = 18)): 2 n
Diarrhea, Grade 2 ([2]; <45 mg TDD (n = 18)): (11) %
Diarrhea, Grade 2, number of subjects ([2]; <45 mg TDD (n = 18)): 2 n
Dose discontinuations ([2]; <45 mg TDD (n = 18)): 9%
Dose discontinuations, number ([2]; <45 mg TDD (n = 18)): 1 n
Dose reductions ([2]; <45 mg TDD (n = 18)): 18%
Dose reductions, number ([2]; <45 mg TDD (n = 18)): 2 n
Nausea, Grade 1 ([2]; <45 mg TDD (n = 18)): (6) %
Nausea, Grade 1, number of subjects ([2]; <45 mg TDD (n = 18)): 1 n
Paronychia, Grade 1 ([2]; <45 mg TDD (n = 18)): (6) %
Paronychia, Grade 1, number of subjects ([2]; <45 mg TDD (n = 18)): 1 n
Paronychia, Grade 2 ([2]; <45 mg TDD (n = 18)): (11) %
Paronychia, Grade 2, number of subjects ([2]; <45 mg TDD (n = 18)): 2 n
Pruritis, Grade 1 ([2]; <45 mg TDD (n = 18)): (11) %
Pruritis, Grade 1, number of subjects ([2]; <45 mg TDD (n = 18)): 2 n
Rash, Grade 1 ([2]; <45 mg TDD (n = 18)): (33) %
Rash, Grade 1, number of subjects ([2]; <45 mg TDD (n = 18)): 6 n
Rash, Grade 2 ([2]; <45 mg TDD (n = 18)): (22) %
Rash, Grade 2, number of subjects ([2]; <45 mg TDD (n = 18)): 4 n
Stomatitis, Grade 1 ([2]; <45 mg TDD (n = 18)): (22) %
Stomatitis, Grade 1, number of subjects ([2]; <45 mg TDD (n = 18)): 4 n
Stomatitis, Grade 2 ([2]; <45 mg TDD (n = 18)): (11) %
Stomatitis, Grade 2, number of subjects ([2]; <45 mg TDD (n = 18)): 2 n
Vomiting, Grade 1 ([2]; <45 mg TDD (n = 18)): (11) %
Vomiting, Grade 1, number of subjects ([2]; <45 mg TDD (n = 18)): 2 n
Decreased appetite, All Grades ([2]; all doses): (14) %
Decreased appetite, All Grades, number of subjects ([2]; all doses): 7 n
Diarrhea, All Grades ([2]; all doses): (40) %
Diarrhea, All Grades, number of subjects ([2]; all doses): 20 n
Dose discontinuations ([2]; all doses): (4) %
Dose discontinuations, number ([2]; all doses): 2 n
Dose reductions ([2]; all doses): (16) %
Dose reductions, number ([2]; all doses): 8 n
Nausea, All Grades ([2]; all doses): (16) %
Nausea, All Grades, number of subjects ([2]; all doses): 8 n
Paronychia, All Grades ([2]; all doses): (28) %
Paronychia, All Grades, number of subjects ([2]; all doses): 14 n
Pruritis, All Grades ([2]; all doses): (22) %
Pruritis, All Grades, number of subjects ([2]; all doses): 11 n
Rash, All Grades ([2]; all doses): (54) %
Rash, All Grades, number of subjects ([2]; all doses): 27 n
Stomatitis, All Grades ([2]; all doses): (30) %
Stomatitis, All Grades, number of subjects ([2]; all doses): 15 n
Vomiting, All Grades ([2]; all doses): (14) %
Vomiting, All Grades, number of subjects ([2]; all doses): 7 n
Treatment-related adverse events (TRAEs), grade ([2]; each dose level): Grade 1 and 2 treatment-related adverse events (TRAEs) at each dose level
Diarrhea, Grade 1 ([2]; ≥75 mg TDD (n = 9)): 22%
Diarrhea, Grade 1, number of subjects ([2]; ≥75 mg TDD (n = 9)): 2 n
Diarrhea, Grade 2 ([2]; ≥75 mg TDD (n = 9)): 22%
Diarrhea, Grade 2, number of subjects ([2]; ≥75 mg TDD (n = 9)): 2 n
Diarrhea, Grade 3 ([2]; ≥75 mg TDD (n = 9)): 11%
Diarrhea, Grade 3, number of subjects ([2]; ≥75 mg TDD (n = 9)): 1 n
Dose reductions ([2]; ≥75 mg TDD (n = 9)): 33%
Dose reductions, number ([2]; ≥75 mg TDD (n = 9)): 3 n
Nausea, Grade 1 ([2]; ≥75 mg TDD (n = 9)): 11%
Nausea, Grade 1, number of subjects ([2]; ≥75 mg TDD (n = 9)): 1 n
Nausea, Grade 2 ([2]; ≥75 mg TDD (n = 9)): 11%
Nausea, Grade 2, number of subjects ([2]; ≥75 mg TDD (n = 9)): 1 n
Nausea, Grade 3 ([2]; ≥75 mg TDD (n = 9)): 11%
Nausea, Grade 3, number of subjects ([2]; ≥75 mg TDD (n = 9)): 1 n
Paronychia, Grade 1 ([2]; ≥75 mg TDD (n = 9)): 22%
Paronychia, Grade 1, number of subjects ([2]; ≥75 mg TDD (n = 9)): 2 n
Paronychia, Grade 2 ([2]; ≥75 mg TDD (n = 9)): 11%
Paronychia, Grade 2, number of subjects ([2]; ≥75 mg TDD (n = 9)): 1 n
Pruritis, Grade 1 ([2]; ≥75 mg TDD (n = 9)): 11%
Pruritis, Grade 1, number of subjects ([2]; ≥75 mg TDD (n = 9)): 1 n
Pruritis, Grade 2 ([2]; ≥75 mg TDD (n = 9)): 11%
Pruritis, Grade 2, number of subjects ([2]; ≥75 mg TDD (n = 9)): 1 n
Rash, Grade 1 ([2]; ≥75 mg TDD (n = 9)): 44%
Rash, Grade 1, number of subjects ([2]; ≥75 mg TDD (n = 9)): 4 n
Rash, Grade 2 ([2]; ≥75 mg TDD (n = 9)): 11%
Rash, Grade 2, number of subjects ([2]; ≥75 mg TDD (n = 9)): 1 n
Stomatitis, Grade 1 ([2]; ≥75 mg TDD (n = 9)): 22%
Stomatitis, Grade 1, number of subjects ([2]; ≥75 mg TDD (n = 9)): 2 n
Stomatitis, Grade 2 ([2]; ≥75 mg TDD (n = 9)): 22%
Stomatitis, Grade 2, number of subjects ([2]; ≥75 mg TDD (n = 9)): 2 n
Vomiting, Grade 1 ([2]; ≥75 mg TDD (n = 9)): 11%
Vomiting, Grade 1, number of subjects ([2]; ≥75 mg TDD (n = 9)): 1 n
Vomiting, Grade 2 ([2]; ≥75 mg TDD (n = 9)): 11%
Vomiting, Grade 2, number of subjects ([2]; ≥75 mg TDD (n = 9)): 1 n
Vomiting, Grade 3 ([2]; ≥75 mg TDD (n = 9)): 11%
Vomiting, Grade 3, number of subjects ([2]; ≥75 mg TDD (n = 9)): 1 n
